Assay results from ChEMBL document CHEMBL5226300, “Synthetic Approaches to the New Drugs Approved during 2019” (J Med Chem, 2021).
pKi: −log10 of the molar value.

What was measured:
[1] = biological target: T1, Sodium/glucose cotransporter 2 (Homo sapiens, UniProt P31639); assay: Inhibition of SGLT2 (unknown origin)
T1 sequence (P31639 whole entry): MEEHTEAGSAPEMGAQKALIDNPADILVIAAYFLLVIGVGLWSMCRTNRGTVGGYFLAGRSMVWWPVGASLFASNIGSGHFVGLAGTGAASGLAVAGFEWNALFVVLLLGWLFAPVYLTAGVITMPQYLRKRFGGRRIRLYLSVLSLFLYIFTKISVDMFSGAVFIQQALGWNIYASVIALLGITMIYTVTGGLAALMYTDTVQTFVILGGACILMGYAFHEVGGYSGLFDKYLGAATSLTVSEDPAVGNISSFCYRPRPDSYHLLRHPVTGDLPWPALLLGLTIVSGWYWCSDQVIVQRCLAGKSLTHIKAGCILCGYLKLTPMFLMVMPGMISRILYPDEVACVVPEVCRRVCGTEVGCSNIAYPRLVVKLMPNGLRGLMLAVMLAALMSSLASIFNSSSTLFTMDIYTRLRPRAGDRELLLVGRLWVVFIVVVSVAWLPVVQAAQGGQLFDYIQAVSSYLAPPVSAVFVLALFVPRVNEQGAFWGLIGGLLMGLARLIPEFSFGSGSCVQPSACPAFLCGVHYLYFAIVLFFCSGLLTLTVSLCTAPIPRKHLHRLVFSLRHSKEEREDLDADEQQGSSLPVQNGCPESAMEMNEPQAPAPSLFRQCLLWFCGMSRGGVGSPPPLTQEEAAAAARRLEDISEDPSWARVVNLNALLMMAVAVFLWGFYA

[2] = Half life in human; format: ADME
[3] = biological target: Voltage-dependent calcium channel subunit alpha-2/delta-1 (Homo sapiens) (UniProt P54289); assay: Binding affinity to human alpha2delta1 Voltage-dependent calcium channel assessed as dissociation half life
Sequence of Voltage-dependent calcium channel subunit alpha-2/delta-1 (Homo sapiens) (P54289 25-956 limits assumed): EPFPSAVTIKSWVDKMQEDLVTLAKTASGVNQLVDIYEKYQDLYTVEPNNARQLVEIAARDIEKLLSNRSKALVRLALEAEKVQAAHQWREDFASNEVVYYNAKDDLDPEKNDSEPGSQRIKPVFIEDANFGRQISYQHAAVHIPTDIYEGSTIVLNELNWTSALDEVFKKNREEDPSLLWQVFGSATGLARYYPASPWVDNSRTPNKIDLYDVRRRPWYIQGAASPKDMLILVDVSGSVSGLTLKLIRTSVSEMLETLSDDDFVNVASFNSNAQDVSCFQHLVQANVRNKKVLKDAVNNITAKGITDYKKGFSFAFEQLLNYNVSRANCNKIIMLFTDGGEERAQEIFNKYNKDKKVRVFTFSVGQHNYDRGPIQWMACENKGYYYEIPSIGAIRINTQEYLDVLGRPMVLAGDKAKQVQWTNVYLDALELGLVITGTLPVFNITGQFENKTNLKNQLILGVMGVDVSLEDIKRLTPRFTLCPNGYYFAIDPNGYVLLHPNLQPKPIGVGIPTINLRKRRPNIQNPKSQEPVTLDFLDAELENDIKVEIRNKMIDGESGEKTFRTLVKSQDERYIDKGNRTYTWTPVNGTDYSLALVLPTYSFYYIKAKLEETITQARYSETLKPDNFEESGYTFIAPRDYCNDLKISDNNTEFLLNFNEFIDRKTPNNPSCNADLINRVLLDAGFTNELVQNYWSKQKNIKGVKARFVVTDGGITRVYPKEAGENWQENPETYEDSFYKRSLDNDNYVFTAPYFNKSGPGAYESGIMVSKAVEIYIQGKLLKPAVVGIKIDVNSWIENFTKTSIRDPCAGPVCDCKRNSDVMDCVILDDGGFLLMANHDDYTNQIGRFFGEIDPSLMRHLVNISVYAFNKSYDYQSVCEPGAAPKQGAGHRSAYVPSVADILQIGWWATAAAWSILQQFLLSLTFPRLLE
Sequence of Voltage-dependent calcium channel subunit alpha-2/delta-1 (Homo sapiens) (P54289 957-1103 limits assumed): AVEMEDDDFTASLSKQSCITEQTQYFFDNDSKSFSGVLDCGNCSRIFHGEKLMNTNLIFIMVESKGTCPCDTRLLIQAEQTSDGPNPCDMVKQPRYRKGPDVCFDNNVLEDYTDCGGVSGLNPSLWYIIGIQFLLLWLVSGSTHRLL

[4] = biological target: Voltage-dependent calcium channel subunit alpha-2/delta-2 (Homo sapiens) (UniProt Q9NY47)
Sequence of Voltage-dependent calcium channel subunit alpha-2/delta-2 (Homo sapiens) (Q9NY47 19-1001 limits assumed): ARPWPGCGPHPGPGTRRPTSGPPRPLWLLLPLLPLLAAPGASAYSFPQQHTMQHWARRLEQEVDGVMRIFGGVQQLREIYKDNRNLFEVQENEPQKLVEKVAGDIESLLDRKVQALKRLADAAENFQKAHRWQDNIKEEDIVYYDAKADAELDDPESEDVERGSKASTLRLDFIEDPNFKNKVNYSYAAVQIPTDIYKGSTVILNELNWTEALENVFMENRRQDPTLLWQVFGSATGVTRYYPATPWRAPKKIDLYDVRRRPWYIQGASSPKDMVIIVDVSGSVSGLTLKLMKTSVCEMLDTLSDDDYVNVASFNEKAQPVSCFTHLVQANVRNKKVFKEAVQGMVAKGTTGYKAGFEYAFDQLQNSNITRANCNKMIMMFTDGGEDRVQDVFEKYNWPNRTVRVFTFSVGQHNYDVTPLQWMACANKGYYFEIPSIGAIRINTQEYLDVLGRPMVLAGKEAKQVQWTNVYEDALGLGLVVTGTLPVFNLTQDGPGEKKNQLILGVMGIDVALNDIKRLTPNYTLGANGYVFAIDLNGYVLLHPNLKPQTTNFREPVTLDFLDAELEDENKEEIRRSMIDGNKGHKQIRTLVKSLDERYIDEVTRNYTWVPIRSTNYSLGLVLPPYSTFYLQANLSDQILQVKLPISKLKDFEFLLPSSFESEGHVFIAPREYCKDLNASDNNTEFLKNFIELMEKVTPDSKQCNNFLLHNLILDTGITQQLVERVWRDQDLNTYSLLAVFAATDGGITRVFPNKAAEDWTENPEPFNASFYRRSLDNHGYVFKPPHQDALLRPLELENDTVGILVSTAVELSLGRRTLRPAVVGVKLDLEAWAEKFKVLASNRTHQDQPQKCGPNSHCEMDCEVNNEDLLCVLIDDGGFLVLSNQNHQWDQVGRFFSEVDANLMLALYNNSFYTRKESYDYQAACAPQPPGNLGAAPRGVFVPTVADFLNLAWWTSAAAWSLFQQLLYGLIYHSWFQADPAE
Sequence of Voltage-dependent calcium channel subunit alpha-2/delta-2 (Homo sapiens) (Q9NY47 1002-1150 limits assumed): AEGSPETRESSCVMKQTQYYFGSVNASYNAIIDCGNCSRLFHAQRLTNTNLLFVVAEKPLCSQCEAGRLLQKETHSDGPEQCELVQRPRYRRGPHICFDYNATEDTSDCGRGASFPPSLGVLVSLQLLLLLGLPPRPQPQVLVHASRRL
Description: Binding affinity to human alpha2delta2 Voltage-dependent calcium channel assessed as dissociation half life

Row | SMILES | pKi [1] | half-life [2] [h] | T1/2 [3] [h] | T1/2 [4] [h]
1 | CCOC(=O)OC[C@H]1O[C@@H](Oc2nn(C(C)C)c(C)c2Cc2ccc(OC(C)C)cc2)[C@H](O)[C@@H](O)[C@@H]1O [REMOGLIFLOZIN ETABONATE] | 7.91 | 2 |  | 
2 | CCC1=C[C@@H]2[C@H](C1)C[C@]2(CN)CC(=O)O |  |  | > 11 | 
3 | CC(C)C[C@H](CN)CC(=O)O |  |  | 1.5 | 1.5
